These results are taken from patent publication US12178791B2, “Haloallylamine sulfone derivative inhibitors of lysyl oxidases and uses thereof” (Syntara Limited, priority 2018, dated 2024).

Series [1] has as its target Recombinant human MAO-B (Homo sapiens (Human), UniProt P27338). The experiment in a line: Inhibition of human recombinant MAO-B. The settings on record: benzylamine 100 μM. Format: biochemical. As for the experimental part: The specificity of the compounds of this invention was tested by determining their ability to inhibit MAO-B activities in vitro. Recombinant human MAO-B (0.06 mg/mL; Sigma Aldrich) was used as source of MAO-B enzyme activities. The assay was performed in a similar way as for human SSAO/VAP-1 (Example 28) except, the substrate benzylamine was used at 100 μM.

Series [2] relates to desmoplastic ovarian tumour. The settings on record: mouse, in vivo; cited from earlier work.
The target of series [3] is LOX (Rattus norvegicus (Rat), UniProt P16636). The settings on record: CIA rats; cited from earlier work.
Series [4] deals with Bovine LOX (Bos taurus (Bovine), UniProt P33072). In words: LOX inhibition, Amplex Red oxidation assay. Format: biochemical. The settings on record: 30 min preincubation at 37 °C, putrescine substrate. In a few lines:
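Bovine LOX in 1.2 M urea, 50 mM sodium borate pH 8.2, with 1 μM mofegiline and 0.5 mM pargyline unless recombinant or purified. The added mix held putrescine at twice KM (20 mM for LOX), 120 μM Amplex Red and 1.5 U/mL HRP.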

Series [5] has as its target surgery induced systemic LOX (Mus musculus (Mouse), UniProt P28301). The settings on record: in vivo; cited from earlier work.
Series [6] has as its system SiHa cervical cancer cells. The settings on record: cited from earlier work.
For series [7], the target named is T1, LOXL2 (Homo sapiens (Human), UniProt Q9Y4K0). In words: LOXL2 inhibition, Amplex Red oxidation assay. The settings on record: 30 min preincubation at 37 °C, putrescine substrate. Format: biochemical. In a few lines:
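LOXL2 in 1.2 M urea, 50 mM sodium borate pH 8.2 was preincubated with compound (11-point curve) for 30 min at 37 °C; mofegiline/pargyline were added only for non-purified enzyme. Reaction mix held 2× KM putrescine (10 mM), 120 μM Amplex Red and 1.5 U/mL HRP. H2O2 fluorescence (ex 565/em 590 nm) was read over 30 min, and IC50 came from slopes.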

Series [8] addresses Human recombinant SSAO/VAP-1 (Homo sapiens (Human), UniProt Q16853). The experiment in a line: Inhibition of human recombinant SSAO/VAP-1. Format: biochemical. In outline:
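Purified enzyme (residues 34-763, expressed in CHO Lec8 cells; 0.25 μg/mL in 0.1 M sodium phosphate pH 7.4) was preincubated with compound 30 min at 37 °C. An added mix held 600 μM benzylamine, 120 μM Amplex Red and 1.5 U/mL HRP. Fluorescence (ex 565/em 590 nm) was read every 2.5 min for 30 min at 37 °C, and IC50 was derived from kinetic slopes over 4-11-point curves.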

For series [9] the following is noted: in vivo; cited from earlier work.
For series [10], the system named is MMTV-PyMT breast cancer. The settings on record: in vivo; cited from earlier work.
Series [11] deals with T1, LOXL2. In words: Jump dilution experiment, sustained inhibition of LOXL2.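 Note: 30× IC50 used only where needed so inhibitor exceeds enzyme concentration.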 Format: biochemical. The settings on record: jump dilution after 40 min at 37 °C with 10× or 30× IC50; vs non-inhibited controls. As for the experimental part: (§1) Jump Dilution experiment: The assay was developed using a 96 well format and the starting enzyme concentration was set 100 times higher than for the inhibition studies. […] After the incubation, the mixture was diluted 50× in assay buffer, followed by a further 2× dilution in Amplex Red-horseradish peroxidase-putrescine reaction mix (same as per the inhibition studies) prior to the fluorescent measurement. Results were expressed in % recovery of the signal after a specified time by comparison with non-inhibited controls.

Series [12] deals with LOXL1 (Homo sapiens (Human), UniProt Q08397). The experiment in a line: Jump dilution experiment, sustained inhibition of LOXL1.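 Note: 30× IC50 used only where needed so inhibitor exceeds enzyme concentration.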 Format: biochemical. The settings on record: jump dilution after 40 min at 37 °C with 10× or 30× IC50; vs non-inhibited controls. The procedure: as §1
The test system of series [13] is GATA1low mice. In words: Mouse model of primary myelofibrosis. Format: in vivo. The settings on record: 15 mg/kg i.p. four times a week for 10 weeks. The procedure: Fifteen to sixteen week old GATA1low male and female mice were intra-peritoneal injected with either vehicle (olive oil), or Compound 19 at a dose of 15 mg/kg, four times a week for 10 weeks. The mice were then sacrificed and the spleens and femurs were harvested for histology and analysis (FIGS. 7(a-e) and FIGS. 8(a-d)).

The target of series [14] is rhSSAO (Homo sapiens (Human), UniProt Q16853). In words: Measurement of substrate turnover by SSAO. Format: biochemical. The settings on record: compound 2.5 mM, relative to background (dimethyl sulfoxide only). As for the experimental part: In brief, the assay employed determines the substrate propensity of a compound relative to background (dimethyl sulfoxide only). Compound oxidation by rhSSAO was measured by fluorometric assay (Holt and Palcic, 2006). Briefly, rhSSAO was incubated for 2 hours at 37° C. in HEPES buffer before the addition of an equal volume of Amplex Red ([…]), horseradish peroxidase (4 U/ml), and Compound (2.5 mM) in the same buffer. The kinetics of the formation of resorufin was measured immediately using Optima reader (BMG Labtech GmbH, Ortenburg, Germany), at 37° C.

Setting [15] is: 30 min preincubation at 37 °C, benzylamine 600 μM, read-out: SSAO/VAP-1 Activity IC50.

SMILES strings stand for the structures. Structures can show the parent of a compound that is named as a salt. Where two headings read alike, the source gives them in different places. Some results are limits rather than exact numbers.

Chain of LOXL1 (Q08397 96-574, species assumed): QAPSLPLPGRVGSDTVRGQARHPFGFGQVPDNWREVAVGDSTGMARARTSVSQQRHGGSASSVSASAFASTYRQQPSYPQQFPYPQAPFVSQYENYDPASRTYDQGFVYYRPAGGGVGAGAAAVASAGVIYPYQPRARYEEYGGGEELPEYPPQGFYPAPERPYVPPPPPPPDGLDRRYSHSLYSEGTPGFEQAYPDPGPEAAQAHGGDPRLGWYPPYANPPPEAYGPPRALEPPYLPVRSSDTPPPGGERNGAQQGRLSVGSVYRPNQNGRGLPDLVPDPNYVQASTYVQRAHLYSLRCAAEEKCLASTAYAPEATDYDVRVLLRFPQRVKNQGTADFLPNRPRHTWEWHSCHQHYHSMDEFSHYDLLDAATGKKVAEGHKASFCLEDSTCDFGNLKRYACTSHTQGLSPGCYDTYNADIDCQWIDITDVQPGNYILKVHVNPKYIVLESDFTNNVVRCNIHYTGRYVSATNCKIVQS
Chain of Human recombinant SSAO/VAP-1 (Q16853 34-763): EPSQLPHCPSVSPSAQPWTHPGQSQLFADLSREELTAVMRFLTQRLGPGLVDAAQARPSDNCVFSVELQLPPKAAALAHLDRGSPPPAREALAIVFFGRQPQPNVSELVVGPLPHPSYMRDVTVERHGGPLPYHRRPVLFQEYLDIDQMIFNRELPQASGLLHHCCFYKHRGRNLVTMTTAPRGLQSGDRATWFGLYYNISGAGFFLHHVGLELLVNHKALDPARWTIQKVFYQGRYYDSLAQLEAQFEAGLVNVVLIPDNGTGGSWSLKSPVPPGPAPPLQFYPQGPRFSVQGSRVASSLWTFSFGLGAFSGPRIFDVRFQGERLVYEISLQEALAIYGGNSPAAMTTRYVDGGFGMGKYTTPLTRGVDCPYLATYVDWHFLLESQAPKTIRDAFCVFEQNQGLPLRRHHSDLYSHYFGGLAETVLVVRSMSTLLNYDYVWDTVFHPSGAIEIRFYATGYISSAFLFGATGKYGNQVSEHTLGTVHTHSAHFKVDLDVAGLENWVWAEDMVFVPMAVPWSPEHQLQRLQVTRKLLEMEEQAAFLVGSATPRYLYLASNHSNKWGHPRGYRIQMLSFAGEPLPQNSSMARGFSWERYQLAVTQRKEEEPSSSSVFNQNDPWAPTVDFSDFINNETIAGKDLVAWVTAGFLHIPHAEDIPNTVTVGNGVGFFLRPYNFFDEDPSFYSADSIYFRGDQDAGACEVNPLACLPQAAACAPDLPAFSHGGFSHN
Chain of Bovine LOX (P33072 170-418): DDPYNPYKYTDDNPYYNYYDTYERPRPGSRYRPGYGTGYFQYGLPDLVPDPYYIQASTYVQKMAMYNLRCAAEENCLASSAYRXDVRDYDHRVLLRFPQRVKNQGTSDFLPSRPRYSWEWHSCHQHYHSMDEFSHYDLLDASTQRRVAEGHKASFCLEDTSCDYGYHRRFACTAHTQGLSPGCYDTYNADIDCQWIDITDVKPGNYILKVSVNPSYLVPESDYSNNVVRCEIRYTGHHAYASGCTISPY
Chain of Recombinant human MAO-B (P27338 whole entry): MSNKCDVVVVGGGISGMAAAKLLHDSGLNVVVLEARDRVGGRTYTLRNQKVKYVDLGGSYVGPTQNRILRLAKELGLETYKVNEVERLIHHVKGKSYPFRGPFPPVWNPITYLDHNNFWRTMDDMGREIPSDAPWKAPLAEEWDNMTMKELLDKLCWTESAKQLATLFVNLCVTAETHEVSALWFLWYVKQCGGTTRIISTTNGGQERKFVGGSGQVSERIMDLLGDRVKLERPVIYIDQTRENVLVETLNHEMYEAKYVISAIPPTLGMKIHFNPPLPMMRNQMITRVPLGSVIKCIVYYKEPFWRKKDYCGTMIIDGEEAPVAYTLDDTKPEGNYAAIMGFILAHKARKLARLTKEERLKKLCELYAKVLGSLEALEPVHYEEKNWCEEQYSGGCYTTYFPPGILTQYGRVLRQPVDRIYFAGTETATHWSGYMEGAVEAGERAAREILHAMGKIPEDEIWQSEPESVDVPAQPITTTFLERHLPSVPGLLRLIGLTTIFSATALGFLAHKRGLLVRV
T1 sequence (Q9Y4K0 26-774): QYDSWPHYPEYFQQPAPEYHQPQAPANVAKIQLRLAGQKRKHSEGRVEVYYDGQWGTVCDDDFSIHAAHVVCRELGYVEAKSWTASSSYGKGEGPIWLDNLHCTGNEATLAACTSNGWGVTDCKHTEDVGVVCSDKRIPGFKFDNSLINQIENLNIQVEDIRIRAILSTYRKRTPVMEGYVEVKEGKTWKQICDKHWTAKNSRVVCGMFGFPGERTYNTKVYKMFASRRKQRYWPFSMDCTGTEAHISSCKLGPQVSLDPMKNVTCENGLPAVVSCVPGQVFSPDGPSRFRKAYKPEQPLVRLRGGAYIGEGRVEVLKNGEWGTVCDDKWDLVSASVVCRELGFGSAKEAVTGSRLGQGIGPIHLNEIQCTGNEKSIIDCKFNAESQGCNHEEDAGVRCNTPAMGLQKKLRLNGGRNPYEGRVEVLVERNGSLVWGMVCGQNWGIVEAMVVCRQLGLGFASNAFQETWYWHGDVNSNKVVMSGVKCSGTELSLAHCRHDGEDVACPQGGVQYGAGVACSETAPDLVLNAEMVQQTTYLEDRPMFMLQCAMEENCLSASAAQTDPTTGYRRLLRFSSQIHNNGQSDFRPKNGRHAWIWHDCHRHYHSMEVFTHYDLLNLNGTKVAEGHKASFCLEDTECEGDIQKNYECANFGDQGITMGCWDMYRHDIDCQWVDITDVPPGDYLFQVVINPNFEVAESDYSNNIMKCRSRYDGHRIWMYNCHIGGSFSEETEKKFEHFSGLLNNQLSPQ
Chain of LOX (P16636 163-411): as the sequence (P33072 170-418) above, with T10S, P27S, Y31H, A64S, X84A, N188A, K202Q counted along it
Chain of surgery induced systemic LOX (P28301 163-411): as the sequence (P33072 170-418) above, with T10S, Y31N, A64S, X84A, S142N, N188A, K202Q, S224T, E231D counted along it
Chain of rhSSAO (Q16853 whole entry): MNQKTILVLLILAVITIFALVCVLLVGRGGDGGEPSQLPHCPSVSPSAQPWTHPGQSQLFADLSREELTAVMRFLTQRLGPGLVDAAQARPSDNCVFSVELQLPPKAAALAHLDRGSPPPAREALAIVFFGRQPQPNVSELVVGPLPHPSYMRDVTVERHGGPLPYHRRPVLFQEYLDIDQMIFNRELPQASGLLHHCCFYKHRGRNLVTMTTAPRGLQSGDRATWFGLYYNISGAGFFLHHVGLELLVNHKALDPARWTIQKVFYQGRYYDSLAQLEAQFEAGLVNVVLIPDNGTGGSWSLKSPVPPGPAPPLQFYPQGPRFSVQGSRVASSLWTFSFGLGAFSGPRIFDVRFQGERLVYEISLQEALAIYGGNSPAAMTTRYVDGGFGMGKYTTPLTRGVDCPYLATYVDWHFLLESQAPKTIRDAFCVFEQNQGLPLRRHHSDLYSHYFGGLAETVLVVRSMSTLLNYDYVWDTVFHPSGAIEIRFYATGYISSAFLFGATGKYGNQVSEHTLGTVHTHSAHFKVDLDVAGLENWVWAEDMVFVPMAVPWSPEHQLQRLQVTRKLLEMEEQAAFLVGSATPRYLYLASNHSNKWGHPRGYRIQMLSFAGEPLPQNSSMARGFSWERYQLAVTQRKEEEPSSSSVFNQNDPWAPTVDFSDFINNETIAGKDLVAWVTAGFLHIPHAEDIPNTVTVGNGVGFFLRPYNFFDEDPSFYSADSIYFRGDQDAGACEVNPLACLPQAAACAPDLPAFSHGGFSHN

Regarding `N#CCCN` [BAPN, β-aminopropionitrile], the IC50 in series [1] was greater than 30 µM; in series [4] it was less than 10 µM; in series [7] it was less than 1 µM; in series [8] (setting [15]) it was greater than 30 µM. Besides, the lung metastasis entry in series [2] was “decreased”. For the same compound, the survival entry in [2] was “significantly increased”. Also, in series [3], the “inflammation, synovial hyperplasia, angiogenesis and expression of MMP-2 and MMP-9” value was “attenuate”. In addition, in series [5], the “metastasis and survival after surgery induced systemic LOX” value was “reducing metastasis and increasing survival”. The “increased invasion in vitro under hypoxic/anoxic conditions” value in series [6] is “repressed”. Besides, the “tolerability in human patients with scleroderma” value in series [9] was “poorly tolerated”.

Take `CS(=O)(=O)c1cc(-c2ccccc2)cc(S(=O)(=O)c2ccc(CN)s2)c1` [CCT365623]: the metastasis and survival entry in [10] was “reduce metastasis and increase survival”.

Turning to `CN(C)S(=O)(=O)c1ccc(COc2cccc(S(=O)(=O)C/C(F)=C/CN)c2)cc1` [Compound 9, (Z)-4-((3-((4-amino-2-fluorobut-2-en-1-yl)sulfonyl)phenoxy)methyl)-N,N-dimethylbenzenesulfonamide hydrochloride], the IC50 in series [1] was less than 10 µM; in series [4] it was less than 1 µM; in [7], less than 1 µM; in series [8] (setting [15]) it was greater than 30 µM. In addition, the “LOXL2 - Recovery of activity. (%)” value in series [11] worked out at 15.1%. Besides, the “LOXL1 - Recovery of activity. (%)” value in series [12] came to 4.4%.

As for `NC/C=C(\F)CS(=O)(=O)c1ccccc1C(=O)NC12CC3CC(CC(C3)C1)C2` [Compound 12, N-(adamantan-1-yl)-2-(((Z)-4-amino-2-fluorobut-2-en-1-yl)sulfonyl)benzamide hydrochloride], the IC50 in series [1] is greater than 30 µM; in series [4] it was less than 10 µM; in series [7], less than 1 µM; in [8] (setting [15]) it was greater than 30 µM. Further, the “LOXL2 - Recovery of activity. (%)” value in series [11] was determined as 9.3%. Moreover, in series [12], the “LOXL1 - Recovery of activity. (%)” value came out at 2.6%.

Take `NC/C=C(\F)CS(=O)(=O)c1cccc(C(=O)NC23CC4CC(CC(C4)C2)C3)c1` [Compound 13, N-(adamantan-1-yl)-3-(((Z)-4-amino-2-fluorobut-2-en-1-yl)sulfonyl)benzamide hydrochloride]: the IC50 in [1] is less than 10 µM; in series [4] it was less than 10 µM; in [7] it was less than 10 µM; in series [8] (setting [15]), greater than 30 µM. In addition, in series [11], the “LOXL2 - Recovery of activity. (%)” value is 8.9%. Moreover, the “LOXL1 - Recovery of activity. (%)” value in series [12] came to 3.5%.

Regarding `NC/C=C(\F)CS(=O)(=O)c1ccccc1Cl` [Compound 19, (Z)-4-(2-chlorophenylsulfonyl)-3-fluorobut-2-en-1-amine hydrochloride], the IC50 in series [1] is greater than 30 µM; in series [4], less than 10 µM; in series [7], less than 1 µM; in series [8] (setting [15]) it was greater than 30 µM. Further, in [13] (vs vehicle), the “Bone marrow (BM) and splenic fibrosis” value is given as “significantly decreased”. For the same compound, the “Morphologic BM megakaryocytes (MKs) on H&E stain” value in series [13] (p<0.001 vs vehicle) is listed as 24.65±0.6 per 20× field. Also, in series [13] (p<0.05 vs vehicle), the platelet count post-treatment amounted to 77.5±4.4 K/uL. Further, in series [13] (p<0.05 vs vehicle), the “spleen weights adjusted to body weight” value came to 242.25 ± 18 mg. In addition, the “LOXL2 - Recovery of activity. (%)” value in [11] was found to be 7.9%. Further, in [12], the “LOXL1 - Recovery of activity. (%)” value is recorded as 7.8%.

As for `NC/C=C(\F)CS(=O)(=O)c1cccnc1` [Compound 31, (Z)-3-fluoro-4-(pyridin-3-ylsulfonyl)but-2-en-1-amine dihydrochloride], the IC50 in series [4] was less than 10 µM; in series [7] it was less than 1 µM; in series [8] (setting [15]), greater than 30 µM; in series [8] (second Table 6 (Example 38), read-out: Recombinant human SSAO (rhSSAO) inhibition (IC50)) it was 27 µM. The “Substrate activity for rhSSAO” value in [14] is given as “no significant turnover”. For the same compound, in series [12], the “LOXL1 - Recovery of activity. (%)” value turned out to be 8.2%.
